Earlier results on two compounds are cited in PMC5862601 (Oncotarget, 2018).

Structures are written as SMILES. Like-named read-outs stand apart in the source and are kept apart here.

The test system of series [1] is PC12 (rat) phaeochromocytoma cells. The settings on record: cited from earlier work.
Series [2] concerns Breast cancer cell line MDA-MB-231. Also noted: method as in Panjehpour M, et al. Br J Pharmacol. 2005; 145: 211-218. [25]. To be noted: ref Panjehpour M, et al. Br J Pharmacol. 2005, 145: 211-218. [25]; cited from earlier work.
Series [3] deals with T24 human bladder carcinoma cells. To be noted: cited from earlier work; for EC50: T24 human bladder carcinoma.
Series [4] relates to Jurkat-T cells. The settings on record: cited from earlier work; for EC50: Jurkat-T, ref Van der Ploeg et al. Naunyn Schmiedeberg’s Arch Pharmacol. 1996, 353: 250-260. [22].
Series [5] relates to Ovarian cancer cell line SKOV-3. Also noted: method as in Hajiahmadi S, et al. Res Pharm Sci. 2015; 10: 43-51. [24]. To be noted: ref Hajiahmadi S, et al. Res Pharm Sci. 2015, 10: 43-51. [24]; cited from earlier work.
Series [6] has as its system Ovarian cancer cell line Caov-4. Also noted: method as in Hajiahmadi S, et al. Res Pharm Sci. 2015; 10: 43-51. [24]. To be noted: ref Hajiahmadi S, et al. Res Pharm Sci. 2015, 10: 43-51. [24]; cited from earlier work.
The test system of series [7] is isolated perfused mouse heart. The settings on record: A2B knockout vs wildtype mice, ref [51]; cited from earlier work.
The subject of series [8] is Human prostatic carcinoma cells PC-3. Also noted: method as in Wei Q, et al. Purinergic Signal. 2013; 9: 271-280. [23]. The settings on record: ref Wei Q, et al. Purinergic Signal. 2013, 9: 271-280. [23]; cited from earlier work.
The test system of series [9] is HMEC-1 human microvascular endothelial cell line. Also noted: method as in Feoktistov I, et al. Circ Res. 2002; 90:531-538. [21]. The settings on record: ref Feoktistov I, et al. Circ Res. 2002, 90:531-538. [21]; cited from earlier work.
The target in series [10] is A2B receptor (CHO-A2B). To be noted: ref De Filippo E, et al. Purinergic Signal. 2016;12: 313-329. [11]; cited from earlier work.
Series [11] concerns HEK293 (native) cells, A2B ≥ A2A. To be noted: cited from earlier work.
Series [12] has as its system HUVEC Human Umbilical Vein Endothelial Cells. Also noted: method as in Feoktistov I, et al. Circ Res. 2002; 90: 531-538. [21]. To be noted: HUVEC (A2A > A2B); ref Feoktistov I, et al. Circ Res. 2002; 90: 531-538. [21]; cited from earlier work.
The test system of series [13] is Ovarian cancer cell line OVCAR-3. Also noted: method as in Hajiahmadi S, et al. Res Pharm Sci. 2015; 10: 43-51. [24]. The settings on record: ref Hajiahmadi S, et al. Res Pharm Sci. 2015, 10: 43-51. [24]; cited from earlier work.
Series [14] relates to prostate cancer cell lines (A2B > A2A). To be noted: three prostate cancer cell lines (A2B > A2A); ref [13]; cited from earlier work.
Series [15] deals with human ovarian cancer cell lines (A2B > A2A). To be noted: three human ovarian cancer cell lines (A2B > A2A); ref [12]; cited from earlier work.
For series [16], the system named is HEK-A2B cells, A2B ≥ A2A. To be noted: cited from earlier work.
The mark [17] stands for this setting: ref van der Ploeg et al. Naunyn Schmiedeberg’s Arch Pharmacol. 1996, 353: 250-260. [22], read-out: EC50.
Where [18] appears, read: ref Gao Z, et al. Biochem Pharmacol. 2014, 90: 297-306. [17].

The EC50 is the midpoint of the concentration-response curve. `CCNC(=O)[C@H]1O[C@@H](n2cnc3c(N)nc(NCCc4ccc(CCC(=O)O)cc4)nc32)[C@H](O)[C@@H]1O` [CGS-21680, (2-p-[2-carboxyethyl]phenethylamino)-5´-N-ethylcarboxamidoadenosine]: the EC50 in series [1] (ref Hide I, et al. Mol Pharmacol. 1992, 41: 352-359. [26], read-out: EC50) was 0.064 µM; in [1] (setting [17]) it was 0.09 µM; in [2], more than 10 µM; in series [3] (setting [18]) it was more than 10 µM; in series [3] (ref Phelps PT, et al. Eur J Pharmacol. 2006, 536: 28-37. [20]) it was more than 10 µM; in [4], more than 100 µM. Moreover, the EC50 in [5] was more than 100 µM; in [6], more than 100 µM; in series [8], more than 10 µM; in [9], more than 100 µM; in [10], 31.1 µM; in series [11] (ref Cooper J, et al. Br J Pharmacol. 1997, 122: 546-550. [18]) it was more than 30 µM. Moreover, the EC50 was more than 10 µM in series [11] (setting [18]), 0.469 µM in series [12] and more than 100 µM in [13]. In addition, the “induction of cAMP accumulation” value in series [3] (T24 (A2B > A2A), ref [45]) is “inactive”. For the same compound, the “activity in cAMP assays” value in [4] (Jurkat-T cells (A2B ≥ A2A), ref [47]) was “nearly inactive”. Also, in [7], the “increase in coronary flow” value was “increased coronary flow in A2B knockout (KO) mice to a significantly higher degree than in wildtype (WT) mice”.
As for `CCNC(=O)[C@H]1O[C@@H](n2cnc3c(N)ncnc32)[C@H](O)[C@@H]1O` [NECA, 5′-N-ethylcarboxamidoadenosine], the EC50 in series [1] (high-affinity component, ref Hide I, et al. Mol Pharmacol. 1992, 41: 352-359. [26], read-out: EC50, biphasic: KH) is 0.066 µM; in series [1] (low-affinity component, ref Hide I, et al. Mol Pharmacol. 1992, 41: 352-359. [26], read-out: EC50, biphasic: KL) it was 7.5 µM; in series [1] (setting [17]), 0.2 µM; in series [2] it was 1.13 µM; in [4], 5.8 µM; in [5] it was 18 µM. Also, the EC50 was 9.12 µM in [6]; 0.469 µM in series [8]; 14 µM in [9]; 0.95 µM in [12]; 0.021 µM in [16] (setting [18]); 0.2 µM in [16] (ref Hinz S, et al. J Pharmacol Exp Ther. 2014, 3: 427-436. [15]). For the same compound, the EC50 in [16] (ref Linden J, et al. Mol Pharmacol. 1999, 56: 705-713. [19]) is 0.0286 µM; in series [13] it was 6.6 µM. Besides, the “induction of cAMP accumulation” value in [14] and in [15] was “concentration-dependently induced cAMP accumulation” each time. The “increase in coronary flow” value in series [7] was “increased coronary flow in A2B knockout (KO) mice to a significantly higher degree than in wildtype (WT) mice”.
